*1 amine or outer side, *2 acyl side, *3 side chain or, on linkers, in order; H or OH if unused. Where a SMILES comes first, the peptide text is derived from it. Bridges are numbered along the chain shown (N, C = ends). [ ]: non-standard residue; d: D form. The star is where a group is joined. C20 diacid = O=C(O)CCCCCCCCCCCCCCCCCCC(=O)*; γGlu = O=C(O)[C@H](CCC(=O)[*:2])N[*:1]; Hyp = O=C(O)[C@@H]1C[C@@H](O)CN1; NMeI = CC[C@H](C)[C@H](NC)C(=O)O; Aad = N[C@@H](CCCC(=O)O)C(=O)O; Sar = CNCC(=O)O
Key:
[1] = Assessment of chemical stability (RP-HPLC normalized purity); type: physicochemical; details: for Normalized purity after 7 days, 40° C., pH 4: pH 4, 0.2 mg/ml; for Normalized purity after 7 days, 40° C., pH 4 / Normalized purity after 7 days, 40° C., pH 6 / Normalized purity after 7 days, 40° C., pH 7.5 / Normalized purity after 7 days, 40° C., pH 9: Table 1; for Normalized purity after 7 days, 40° C., pH 6: pH 6, 0.2 mg/ml; for Normalized purity after 7 days, 40° C., pH 7.5: pH 7.5, 0.2 mg/ml; for Normalized purity after 7 days, 40° C., pH 9: pH 9, 0.2 mg/ml; for Normalized purity pH 4 (Table 5): pH 4, repeat of Example 6 for pairs with/without Asn-Asn at 21-22; for Normalized purity pH 6 (Table 5): pH 6, repeat of Example 6 for pairs with/without Asn-Asn at 21-22; for Normalized purity pH 7.5 (Table 5): pH 7.5, repeat of Example 6 for pairs with/without Asn-Asn at 21-22; for Normalized purity pH 9 (Table 5): pH 9, repeat of Example 6 for pairs with/without Asn-Asn at 21-22
How it was run: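 Purity after 7 days at 40° C is expressed relative to T=0 (set to 100) for each pH. Samples at 0.2 mg/ml, pH 4, 6, 7.5 or 9, analyzed by RP-HPLC with UV 220 nm on C8 (ammonium formate) or C18 (TFA) gradients.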

[2] = target: T1, human calcitonin receptor (hCTR2) (Homo sapiens, UniProt P30988); test: hCTR2 cAMP assay (AlphaScreen) in COS7 cells; type: cell-based; details: cAMP induction, COS7 cells expressing hCTR2; Table 1; read-out: hCTR2 EC50
T1 construct: expressed in transfected cells
T1 sequence (P30988 25-474): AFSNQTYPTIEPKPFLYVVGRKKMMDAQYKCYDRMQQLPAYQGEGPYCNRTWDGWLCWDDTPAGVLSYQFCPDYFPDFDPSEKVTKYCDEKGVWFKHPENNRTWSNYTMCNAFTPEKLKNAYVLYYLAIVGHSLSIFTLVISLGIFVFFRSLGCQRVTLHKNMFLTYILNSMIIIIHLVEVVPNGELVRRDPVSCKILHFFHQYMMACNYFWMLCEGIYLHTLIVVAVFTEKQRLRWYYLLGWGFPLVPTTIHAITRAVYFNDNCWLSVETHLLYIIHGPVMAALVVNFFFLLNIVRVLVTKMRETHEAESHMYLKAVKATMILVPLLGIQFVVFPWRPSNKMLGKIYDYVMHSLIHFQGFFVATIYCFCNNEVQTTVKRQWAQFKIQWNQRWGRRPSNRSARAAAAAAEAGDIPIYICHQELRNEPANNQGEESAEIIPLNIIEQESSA
How it was run: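 cAMP induction, read by AlphaScreen after lysis, gives EC50 values via 4PL curve fitting. Peptides were applied at rising concentrations for 15 min at 37 °C, with IBMX and 0.1% casein in HEPES-buffered Tyrode pH 7.4, to COS7 cells (no endogenous RAMPs) stably expressing human CTR2.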

[3] = Pharmacokinetic (PK) profiling in rats; type: in vivo, rat; design: CI/F (apparent clearance values): unit not given here; details: Sprague Dawley male rats, single sc 30 nmol/kg; for half-life: rat, plasma, read-out: Plasma terminal elimination half-life t1/2 (converted)
How it was run: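 Male Sprague Dawley rats received a single sc dose of 30 nmol/kg in mannitol-containing histidine buffer (pH 7.0), with tail-vein sampling before dosing and at 24–168 hours. Plasma was ethanol-precipitated and assayed by LC-MS/MS. Non-compartmental analysis of mean concentrations gave t1/2 as ln(2)/λz and CL/F as dose/AUCinf.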

Row | Structure (SMILES) | Normalized purity after 7 days, 40° C., pH 4 [1] | Normalized purity after 7 days, 40° C., pH 6 [1] | Normalized purity after 7 days, 40° C., pH 7.5 [1] | Normalized purity after 7 days, 40° C., pH 9 [1] | EC50 [2] | CI/F (apparent clearance values) [3] | half-life [3] | Normalized purity pH 4 (Table 5) [1] | Normalized purity pH 6 (Table 5) [1] | Normalized purity pH 7.5 (Table 5) [1] | Normalized purity pH 9 (Table 5) [1]
1 | CC[C@H](C)[C@@H](C(=O)N[C@@H](CC(C)C)C(=O)N[C@@H](CO)C(=O)N[C@@H](CO)C(=O)N[C@H](C(=O)N[C@@H](CCC(=O)O)C(=O)N[C@H](C(=O)NCC(=O)N[C@@H](CO)C(=O)N[C@@H](CO)C(=O)N[C@H](C(=O)N1CCC[C@H]1C(N)=O)[C@@H](C)O)C(C)C)[C@@H](C)O)N(C)C(=O)[C@H](C)NC(=O)CN(C)C(=O)[C@H](Cc1ccccc1)NC(=O)[C@H](CO)NC(=O)[C@H](CO)NC(=O)[C@H](CCCNC(=N)N)NC(=O)[C@H](CCC(=O)O)NC(=O)[C@H](CC(C)C)NC(=O)[C@H](Cc1ccccc1)NC(=O)[C@H](Cc1c[nH]cn1)NC(=O)[C@H](C)NC(=O)[C@H](CC(C)C)NC(=O)[C@H](CCCNC(=N)N)NC(=O)[C@H](CCC(=O)O)NC(=O)[C@@H](NC(=O)[C@H](C)NC(=O)[C@@H]1CSSC[C@H](NC(=O)[C@H](CCCNC(=N)N)NC(=O)CC[C@H](NC(=O)CCCCCCCCCCCCCCCCCCC(=O)O)C(=O)O)C(=O)NCC(=O)N[C@@H]([C@@H](C)O)C(=O)N[C@@H](C)C(=O)N[C@@H]([C@@H](C)O)C(=O)N1)[C@@H](C)O [Compound 36, [19CD]-isoGlu-R-C( )-GTAT-C( )-ATERLAHFLERSSF-Gly(Me)-A-Ile(Me)-LSSTEVGSSTP-NH2] ({C20 diacid-γGlu}-RCGTATCATERLAHFLERSSF[Sar]A[NMeI]LSSTEVGSSTP-NH2; disulfide 2-7) | A (A = >90%) | A (A = >90%) | B (B = 70-90%) | B (B = 70-90%) | 0.21 nM | 0.0117 | 25.7 h |  |  |  | 
2 | CC[C@H](C)[C@@H](C(=O)N[C@@H](CC(C)C)C(=O)N[C@@H](CO)C(=O)N[C@@H](CO)C(=O)N[C@H](C(=O)N[C@@H](CCC(=O)O)C(=O)N[C@H](C(=O)NCC(=O)N[C@@H](CO)C(=O)N[C@@H](CC(N)=O)C(=O)N[C@H](C(=O)N1C[C@H](O)C[C@H]1C(N)=O)[C@@H](C)O)C(C)C)[C@@H](C)O)N(C)C(=O)[C@H](C)NC(=O)CN(C)C(=O)[C@H](Cc1ccccc1)NC(=O)[C@H](CO)NC(=O)[C@H](CO)NC(=O)[C@H](CCCNC(=N)N)NC(=O)[C@H](CCC(N)=O)NC(=O)[C@H](CC(C)C)NC(=O)[C@H](Cc1ccccc1)NC(=O)[C@H](CC(=O)O)NC(=O)[C@H](C)NC(=O)[C@H](CC(C)C)NC(=O)[C@H](CCCNC(=N)N)NC(=O)[C@H](CCC(N)=O)NC(=O)[C@@H](NC(=O)[C@H](C)NC(=O)[C@@H]1CSSC[C@H](NC(=O)[C@H](CCCNC(=N)N)NC(=O)CC[C@H](NC(=O)CCCCCCCCCCCCCCCCCCC(=O)O)C(=O)O)C(=O)N[C@@H](CC(N)=O)C(=O)N[C@@H]([C@@H](C)O)C(=O)N[C@@H](C)C(=O)N[C@@H]([C@@H](C)O)C(=O)N1)[C@@H](C)O [Compound 49, [19CD]-isoGlu-R-C( )-NTAT-C( )-ATQRLADFLQRSSF-Gly(Me)-A-Ile(Me)-LSSTEVGSNT-Hyp-NH2] ({C20 diacid-γGlu}-RCNTATCATQRLADFLQRSSF[Sar]A[NMeI]LSSTEVGSNT[Hyp]-NH2; disulfide 2-7) | A (A = >90%) | A (A = >90%) | A (A = >90%) | B (B = 70-90%) | 0.06 nM | 0.00406 | 36.7 h |  |  |  | 
3 | CC[C@H](C)[C@@H](C(=O)N[C@@H](CC(C)C)C(=O)N[C@@H](CO)C(=O)N[C@@H](CO)C(=O)N[C@H](C(=O)N[C@@H](CCC(=O)O)C(=O)N[C@H](C(=O)NCC(=O)N[C@@H](CO)C(=O)N[C@@H](CC(N)=O)C(=O)N[C@H](C(=O)N1C[C@H](O)C[C@H]1C(N)=O)[C@@H](C)O)C(C)C)[C@@H](C)O)N(C)C(=O)[C@H](C)NC(=O)CN(C)C(=O)[C@H](Cc1ccccc1)NC(=O)[C@H](CO)NC(=O)[C@H](CO)NC(=O)[C@H](CCCNC(=N)N)NC(=O)[C@H](CCC(N)=O)NC(=O)[C@H](CC(C)C)NC(=O)[C@H](Cc1ccccc1)NC(=O)[C@H](CCCC(=O)O)NC(=O)[C@H](C)NC(=O)[C@H](CC(C)C)NC(=O)[C@H](CCCNC(=N)N)NC(=O)[C@H](CCC(=O)O)NC(=O)[C@@H](NC(=O)[C@H](C)NC(=O)[C@@H]1CSSC[C@H](NC(=O)[C@H](CCCNC(=N)N)NC(=O)CC[C@H](NC(=O)CCCCCCCCCCCCCCCCCCC(=O)O)C(=O)O)C(=O)NCC(=O)N[C@@H]([C@@H](C)O)C(=O)N[C@@H](C)C(=O)N[C@@H]([C@@H](C)O)C(=O)N1)[C@@H](C)O [Compound 55, [19CD]-isoGlu-R-C( )-GTAT-C( )-ATERLA-Aad-FLQRSSF-Gly(Me)-A-Ile(Me)-LSSTEVGSNT-Hyp-NH2] ({C20 diacid-γGlu}-RCGTATCATERLA[Aad]FLQRSSF[Sar]A[NMeI]LSSTEVGSNT[Hyp]-NH2; disulfide 2-7) | A (A = >90%) | A (A = >90%) | A (A = >90%) | B (B = 70-90%) | 0.11 nM | 0.0045 | 26.2 h | A (A = >90%) | A (A = >90%) | A (A = >90%) | B (B = 70-90%)
4 | CC[C@H](C)[C@@H](C(=O)N[C@@H](CC(C)C)C(=O)N[C@@H](CO)C(=O)N[C@@H](CO)C(=O)N[C@H](C(=O)N[C@@H](CCC(=O)O)C(=O)N[C@H](C(=O)NCC(=O)N[C@@H](CO)C(=O)N[C@@H](CC(N)=O)C(=O)N[C@H](C(=O)N1C[C@H](O)C[C@H]1C(N)=O)[C@@H](C)O)C(C)C)[C@@H](C)O)N(C)C(=O)[C@H](C)NC(=O)CN(C)C(=O)[C@H](Cc1ccccc1)NC(=O)[C@H](CO)NC(=O)[C@H](CO)NC(=O)[C@H](CCCNC(=N)N)NC(=O)[C@H](CCC(N)=O)NC(=O)[C@H](CC(C)C)NC(=O)[C@H](Cc1ccccc1)NC(=O)[C@H](Cc1c[nH]cn1)NC(=O)[C@H](C)NC(=O)[C@H](CC(C)C)NC(=O)[C@H](CCCNC(=N)N)NC(=O)[C@H](CCC(=O)O)NC(=O)[C@@H](NC(=O)[C@H](C)NC(=O)[C@@H]1CSSC[C@H](NC(=O)[C@H](CCCNC(=N)N)NC(=O)CC[C@H](NC(=O)CCCCCCCCCCCCCCCCCCC(=O)O)C(=O)O)C(=O)N[C@@H](CCC(N)=O)C(=O)N[C@@H]([C@@H](C)O)C(=O)N[C@@H](C)C(=O)N[C@@H]([C@@H](C)O)C(=O)N1)[C@@H](C)O [Compound 57, [19CD]-isoGlu-R-C( )-QTAT-C( )-ATERLAHFLQRSSF-Gly(Me)-A-Ile(Me)-LSSTEVGSNT-Hyp-NH2] ({C20 diacid-γGlu}-RCQTATCATERLAHFLQRSSF[Sar]A[NMeI]LSSTEVGSNT[Hyp]-NH2; disulfide 2-7) | A (A = >90%) | A (A = >90%) | A (A = >90%) | A (A = >90%) | 0.08 nM | 0.0078 | 17.9 h | A (A = >90%) | A (A = >90%) | A (A = >90%) | B (B = 70-90%)
